# Results as given in patent US8822698B2, “Aminoacid derivatives, their process of preparation and their therapeutical uses as inhibitors of oncogenic signals by the Met family” (Universite D'Aix-Marseille, priority 2009, dated 2014).
# What was measured:
# [1] = system: MDCK cells; assay: Toxicity observed in the cell scattering screening; assay type: cell-based
# Procedure: For scattering assays, MDCK cells were pre-incubated with compounds for 2 hours at 0.1-100 μM concentrations at 37° C. in a humidified atmosphere of 5% CO2, followed by 24 hr stimulation with 20 ng/ml HGF (R&D Systems), as previously described (Patane et al., Biochem Biophys Res Commun 375, 184-189, 2008). The cells were further incubated at 37° C. in an atmosphere of 5% CO2 for 24-48 hours, washed with phosphate-buffered saline (PBS; Gibco BRL), and fixed in PFA (Sigma). The quantification of scattering response was performed by counting the number of cells with scattered morphology in 30 independent colonies. The […] corresponds to the concentration of compounds leading to a 50% inhibition of Met-triggered cell scattering. Active compounds were assayed to impair scattering response also on human breast MCF10A cells following the same procedure. For survival assays, GTL-16, HepG2 and U-87 cells were cultured in serum-free media for 24 hours prior to compound addition for 48 hours. Viability was assessed with the Cell Titer Glo Luminescent Assay (Promega). For in vitro tumorigenesis, soft agar growth assays were preformed using GTL-16, HepG2, and U-87 cells, as previously described (Patane et al., Cancer Res 66, 4750-4757, 2006).
# Compounds of examples 1 (XIII), 2 (XIV), 4 (XVI), 5 (XVII), and 6 (XVIII) in particular elicit inhibitory activity on Met-triggered cell scattering. […] The SU11274 (Met inhibitor; Sugen) was used as reference compound. […] These findings were further supported by analysing the inhibitory activity of compounds on breast cells. […] Altogether, these studies identify a new class of compounds of general formula (I), which are able to interfere with Met-triggered cell scattering.
# [2] = system: OVCAR-5; assay: NCI 60 human tumour cell line screen; assay type: cell-based; details: conc. 10^−5M; OVCAR-5, Ovarian Cancer
# Description: (§1) Compound of example 4 was screened in the NCI 60 human tumour cell line anticancer drug screen (Shoemaker et al Nature reviews 6, 2006, 813-823).
# [3] = system: SK-OV-3; assay: NCI 60 human tumour cell line screen; assay type: cell-based; details: conc. 10^−5M; SK-OV-3, Ovarian Cancer
# Description: as §1
# [4] = system: NCl/ADR-RES; assay: NCI 60 human tumour cell line screen; assay type: cell-based; details: conc. 10^−5M, Ovarian Cancer
# Description: as §1
# [5] = system: ACHN; assay: NCI 60 human tumour cell line screen; assay type: cell-based; details: conc. 10^−5M, Renal Cancer
# Description: as §1
# [6] = system: KM12; assay: NCI 60 human tumour cell line screen; assay type: cell-based; details: conc. 10^−5M; KM12, Colon Cancer
# Description: as §1
# [7] = system: SNB-75; assay: NCI 60 human tumour cell line screen; assay type: cell-based; details: conc. 10^−5M; SNB-75, CNS Cancer
# Description: as §1
# [8] = system: NCl-H322M; assay: NCI 60 human tumour cell line screen; assay type: cell-based; details: conc. 10^−5M, Non-Small Cell Lung Cancer
# Description: as §1
# [9] = system: HL-60(TB); assay: NCI 60 human tumour cell line screen; assay type: cell-based; details: conc. 10^−5M, Leukemia
# Description: as §1
# [10] = system: MDA-MB-231/ATCC; assay: NCI 60 human tumour cell line screen; assay type: cell-based; details: conc. 10^−5M, Breast Cancer
# Description: as §1
# [11] = system: OVCAR-4; assay: NCI 60 human tumour cell line screen; assay type: cell-based; details: conc. 10^−5M; OVCAR-4, Ovarian Cancer
# Description: as §1
# [12] = system: SF-539; assay: NCI 60 human tumour cell line screen; assay type: cell-based; details: conc. 10^−5M; SF-539, CNS Cancer
# Description: as §1
# [13] = system: HCC-2998; assay: NCI 60 human tumour cell line screen; assay type: cell-based; details: conc. 10^−5M; HCC-2998, Colon Cancer
# Description: as §1
# [14] = system: K-562; assay: NCI 60 human tumour cell line screen; assay type: cell-based; details: conc. 10^−5M; K-562, Leukemia
# Description: as §1
# [15] = system: BT-549; assay: NCI 60 human tumour cell line screen; assay type: cell-based; details: conc. 10^−5M; BT-549, Breast Cancer
# Description: as §1
# [16] = system: SNB-19; assay: NCI 60 human tumour cell line screen; assay type: cell-based; details: conc. 10^−5M; SNB-19, CNS Cancer
# Description: as §1
# [17] = system: COLO 205; assay: NCI 60 human tumour cell line screen; assay type: cell-based; details: conc. 10^−5M; COLO 205, Colon Cancer
# Description: as §1
# [18] = system: CCRF-CEM; assay: NCI 60 human tumour cell line screen; assay type: cell-based; details: conc. 10^−5M, Leukemia
# Description: as §1
# [19] = system: HS 578T; assay: NCI 60 human tumour cell line screen; assay type: cell-based; details: conc. 10^−5M, Breast Cancer
# Description: as §1
# [20] = system: HepG2 cells; assay: Soft agar anchorage-independent growth (in vitro tumorigenesis), HepG2; assay type: cell-based; details: Homo sapiens, read-out: HepG2 IC 50
# Procedure: MDCK cells were grown in Dulbecco's modified Eagle's medium (DMEM) (Gibco BRL) containing 4 mM L-glutamine and supplemented with 2% (v/v) foetal bovine serum (Gibco BRL), 100 U/mL penicillin, and 100 μg/mL streptomycin. Cells were plated at a density of 1000 cells per well in 24-well microplates and allowed to settle overnight at 37° C. in a humidified atmosphere of 5% CO2 prior to treatments. MCF10A human breast cells, MDA-MB231 human breast cancer cells, GTL-16 human gastric carcinoma cells, HepG2 human hepatocellular carcinoma cells, U-87 human glioblastoma-astrocytoma cells and LLC Lewis lung carcinoma cells were grown in RPMI medium (Gibco BRL) containing 4 mM L-glutamine and supplemented with 2% (v/v) foetal bovine serum (Gibco BRL), 100 U/mL penicillin, and 100 μg/mL streptomycin and kept at 37° C. in a humidified atmosphere of 5% CO2.
# For scattering assays, MDCK cells were pre-incubated with compounds for 2 hours at 0.1-100 μM concentrations at 37° C. in a humidified atmosphere of 5% CO2, followed by 24 hr stimulation with 20 ng/ml HGF (R&D Systems), as previously described (Patane et al., Biochem Biophys Res Commun 375, 184-189, 2008). […] The quantification of scattering response was performed by counting the number of cells with scattered morphology in 30 independent colonies. […] Viability was assessed with the Cell Titer Glo Luminescent Assay (Promega). […]
# [21] = Toxicity evaluation in vivo (body and organ weight); parameters: species or system mice
# Procedure: The weight of nude mice treated with the compound of example 4 (30 mg kg-1) or vehicle was measured before, during and after treatment. To evaluate the weight of heart, spleen, kidney, and liver, mice were sacrified after 21 days of treatment, organs were dissected, rinsed in PBS, and weight was measured.
# We evaluated whether compounds of general formula elicited toxic effects in vivo by following mouse weight before, during and after treatment. […] We also evaluated the weight of heart, spleen, kidney and liver of mice treated with the compound of example 4 or vehicle.
smiles,measurement,setting,value
"O=C(Cc1cc(C(F)(F)F)cc(C(F)(F)F)c1)N[C@@H](Cc1ccccc1)C(=O)Nc1ccc(-c2cn3c(n2)sc2ccccc23)cc1 [Example 4, (S)-2-(3,5-bis(trifluoromethyl)phenylacetamido)-3-phenyl-N-[4-(imidazo[2,1-b]benzothiazol-2-yl)phenyl]propanamide]",Concentration at which toxicity was or was not observed,[1],100 µM
same,Toxicity,"[1]; Table 1, scattering screening",>50 µM
same,Growth Percent,[2],97.36%
same,Growth Percent,[3],96.62%
same,Growth Percent,[4],43.07%
same,Growth Percent,[5],81.23%
same,Growth Percent,[6],16.15%
same,Growth Percent,[7],20.69%
same,Growth Percent,[8],28.70%
same,Growth Percent,[9],79.95%
same,Growth Percent,[10],17.15%
same,Growth Percent,[11],−0.79%
same,Growth Percent,[12],36.76%
same,Growth Percent,[13],98.28%
same,Growth Percent,[14],63.10%
same,Growth Percent,[15],82.05%
same,Growth Percent,[16],69.84%
same,Growth Percent,[17],71.04%
same,Growth Percent,[18],32.94%
same,Growth Percent,[19],16.75%
same,IC50,[20],321 nM
same,"weight of heart, spleen, kidney and liver","[21]; after 21 days of treatment, versus vehicle",No differences
same,weight of mice,"[21]; daily treated, 30 mg kg-1, compared to vehicle",No significant changes
